Reference: patent publication US12642796B2, “Method and device of treating chronic kidney disease-associated pruritus” (Avior, Inc., priority 2018, dated 2026)
Values joined by “and” are separate entries in the source; they are usually repeats but may differ in a detail not shown here. Equal entries are not always repeated.

Columns and labels:
Type in all cases: in vivo, mouse
C57BL mice [1] = test: Intradermal injection of SP in mice, scratching behavior at the injection site (Example 1)
From the text: The method of treatment of pruritus was established using C57BL mice where substance P (SP) induced pruritus was created to induce the disease state.
Healthy male C57BL/6 mice ˜6-8 weeks of age and ranging from 21.2 to 26.8 grams in weight at study initiation were used in the Examples. The mice were acclimated for a minimum of 5 days prior to the beginning of the study. The mice were identified by tail mark and cage label. The study was not blinded. Mice were fed species-specific food, and food and water were supplied ad libitum to the animals.
Male C57BL mice were given an intradermal (ID) injection of 0.0168 μg of SP (N=4, Group 1) or PBS (N=2, Group 2) on either the right side only or on both sides. Scratching behavior at the injection site was monitored for 30 minutes from time of injection by two separate observers.
The original dose of 0.0168 μg SP (Group 1) was compared to a higher dose of 33.7 μg SP (N=4, Group 3). […] It was therefore concluded that the scratching behavior was a direct response to the presence and amount of SP.

C57BL mice [2] = test: SP injection, scratches Groups 7-9, 0-30 minutes (Example 3)
Description: […] […] Group 9 (N=4) received SP in PBS at a dose of 0.5 mM/50 μL. Various scratching behavior was video recorded and assessed.
Group 7: All mice were placed in a clear cylindrical enclosure 30 minutes prior to testing to acclimate. An ID bolus injection of SP in sodium acetate was administered.
Groups 8 and 9: All mice were placed in a clear cylindrical enclosure 30 minutes prior to testing to acclimate. An ID bolus injection of SP in PBS was administered. Recording began immediately following injection of SP and recorded for 30 minutes.
Animals in Groups 7-9 were acclimated for […] prior to recording. Behavioral recording lasted for 30 minutes (T0-T30).
The number of scratches per 0-30 minutes for Groups 7-9 is given below in Table 2. The numbers for Groups 7 and 8 were averaged together.

C57BL/6 mice [3] = test: SP and nalmefene injection, scratches Groups 10-12, 0-60 minutes (Example 3)
Description: Fifteen male C57BL/6 mice received a single intradermal (ID) bolus injection of substance P (SP) or PBS. Group 10 (N=6) received a single 50 μL injection of PBS. Group 11 (N=4) received SP in PBS at a dose of 0.5 mM/50 μl. […] Scratching behavior was video recorded and assessed.
Groups 10 and 11: All mice were placed in a clear cylindrical enclosure 60 minutes prior to testing to acclimate. An ID bolus injection of SP in PBS was administered. Recording began immediately following injection of SP and recorded for 60 minutes.
Group 12: All mice were placed in clear cylinder enclosures for 60 minutes prior to testing to acclimate. A SC bolus injection of nalmefene was administered. 30 minutes after the nalmefene injection, an ID bolus injection of SP in PBS was administered. Recording began immediately following injection of SP and recorded for 60 minutes.
Animals in Groups 10-12 were acclimated for 1 hour prior to recording. Behavioral recording lasted for 60 minutes (T0-T60). 6 animals were dosed for Group 12 but only 5 animals were tested due to one animal being excluded as an outlier due to no response to SP injection.
The number of scratches per 10-minute time interval for Groups 10-12 is given below in Table 3. The data is also shown graphically in FIG. 4.
The number of scratches per 0-30 minute and 30-60 minute time intervals is given below in Table 4 for Group 10 (PBS), Group 11 (0.5 mM SP), and Group 12 (0.75 mg nalmefene). The data is also shown graphically in FIG. 5.

C57BL/6 mice [4] = test: Dose escalation of SP, mean scratch count (Example 4)
Description: The SP dose administered to male C57BL/6 mice was escalated and itching was recorded for analysis. Group 13 (N=8) received ID injection of 135 μg SP on the right side of the rostral back. Group 14 (N=8) received ID injection of 233 μg SP on the right side of the rostral back. At T0-60, immediately following dose administration, a camera began recording to monitor itching behavior. At T60, the final itching assessment was completed, camera recording ended, and the study was concluded.
The recordings were reviewed to calculate itching behavior. Two research associates reviewed the recordings and counted the number of scratches for each mouse during the 60-minute collection time. The mean of the two observations were recorded as the number of scratches per 60 minutes.
The scratching over time was observed per 10 minute time period for each animal tested. The data is set forth below in Table 6 and is shown graphically in FIG. 6.

[5] = 250 mM SP ID, Groups 7 and 8 averaged together
[6] = Group 11, SP 0.5 mM/50 μL ID, 0-10 min
[7] = Group 11, SP 0.5 mM/50 μL ID, 10-20 min
[8] = Group 11, SP 0.5 mM/50 μL ID, 20-30 min
[9] = Group 11, SP 0.5 mM/50 μL ID, 30-40 min
[10] = Group 11, SP 0.5 mM/50 μL ID, 40-50 min
[11] = Group 11, SP 0.5 mM/50 μL ID, 50-60 min
[12] = Group 13, 135 μg SP ID, 0-10 min
[13] = Group 13, 135 μg SP ID, 10-20 min
[14] = Group 13, 135 μg SP ID, 20-30 min
[15] = Group 13, 135 μg SP ID, 30-40 min
[16] = Group 13, 135 μg SP ID, 40-50 min
[17] = Group 13, 135 μg SP ID, 50-60 min
[18] = Group 14, 233 μg SP ID, 0-10 min
[19] = Group 14, 233 μg SP ID, 10-20 min
[20] = Group 14, 233 μg SP ID, 20-30 min
[21] = Group 14, 233 μg SP ID, 30-40 min
[22] = Group 14, 233 μg SP ID, 40-50 min
[23] = Group 14, 233 μg SP ID, 50-60 min

## SP: neuropeptide that plays a role in the induction and maintenance of pruritus; injected intradermally to induce scratching
C57BL mice [1]; 0.0168 μg SP ID vs PBS-injected mice, 30 minutes from injection, FIG. 2a
  local site scratching behavior: more frequent
C57BL mice [1]; 33.7 μg SP vs 0.0168 μg SP, FIG. 2b
  scratching in mice, higher vs lower SP dose: increased scratching
C57BL mice [2]; [5]
  Scratches, Facial, Avg.: 110
  Scratches, Facial, individual animals: 110 and 139 and 137 and 54
  Scratches, Left Side, Avg.: 39
  Scratches, Left Side, individual animals: 1 and 69 and 4 and 82
  Scratches, Other, Avg.: 38
  Scratches, Other, individual animals: 38 and 45 and 43 and 26
  Scratches, Rt. Side, Avg.: 12.5
  Scratches, Rt. Side, individual animals: 0 and 36 and 4 and 10
C57BL mice [2]; SP 0.5 mM ID (Group 9)
  Scratches, Facial, Avg.: 29.75
  Scratches, Facial, individual animals: 5 and 20 and 48 and 46
  Scratches, Left Side, Avg.: 12
  Scratches, Left Side, individual animals: 15 and 22 and 11 and 0
  Scratches, Other, Avg.: 21
  Scratches, Other, individual animals: 7 and 27 and 35 and 15
  Scratches, Rt. Side, Avg.: 16.75
  Scratches, Rt. Side, individual animals: 28 and 7 and 13 and 19
C57BL/6 mice [3]; Group 11, SP 0.5 mM, 0-30 min
  Scratches, Avg.: 87.5
  Scratches, individual animals: 119 and 67 and 94.5 and 69.5
C57BL/6 mice [3]; Group 11, SP 0.5 mM, 30-60 min
  Scratches, Avg.: 8.38
  Scratches, individual animals: 19.5 and 5.5 and 2.5 and 6
C57BL/6 mice [3]; [6]
  Scratches, Avg.: 53.75
  Scratches, individual animals: 57.5 and 66 and 49 and 42.5
C57BL/6 mice [3]; [7]
  Scratches, Avg.: 28
  Scratches, individual animals: 41.5 and 1 and 45 and 24.5
C57BL/6 mice [3]; [8]
  Scratches, Avg.: 5.75
  Scratches, individual animals: 20 and 0 and 0.5 and 2.5
C57BL/6 mice [3]; [9]
  Scratches, Avg.: 6
  Scratches, individual animals: 15.5 and 0 and 2.5 and 6
C57BL/6 mice [3]; [10]
  Scratches, Avg.: 0
  Scratches, individual animals: 0
C57BL/6 mice [3]; [11]
  Scratches, Avg.: 2.38
  Scratches, individual animals: 4 and 5.5 and 0 (2×)
C57BL/6 mice [4]; [12]
  Mean Scratch Count, Avg.: 56.75
  Mean Scratch Count, individual animals: 127 and 58 and 5.5 and 22 and 57 and 21.5 and 91 and 72
C57BL/6 mice [4]; [13]
  Mean Scratch Count, Avg.: 26.44
  Mean Scratch Count, individual animals: 53.5 and 41.5 and 0 and 7 and 36 and 23 and 41 and 9.5
C57BL/6 mice [4]; [14]
  Mean Scratch Count, Avg.: 8.88
  Mean Scratch Count, individual animals: 0 (2×) and 4 and 7 and 2 and 12.5 and 22.5 and 23
C57BL/6 mice [4]; [15]
  Mean Scratch Count, Avg.: 3.69
  Mean Scratch Count, individual animals: 0 (4×) and 15 and 0.5 and 12 and 2
C57BL/6 mice [4]; [16]
  Mean Scratch Count, Avg.: 1.06
  Mean Scratch Count, individual animals: 0 (6×) and 5 and 3.5
C57BL/6 mice [4]; [17]
  Mean Scratch Count, Avg.: 0.31
  Mean Scratch Count, individual animals: 0 (6×) and 2 and 0.5
C57BL/6 mice [4]; [18]
  Mean Scratch Count, Avg.: 89.88
  Mean Scratch Count, individual animals: 123 and 131.5 and 108 and 85.5 and 8 and 33 and 145 and 85
C57BL/6 mice [4]; [19]
  Mean Scratch Count, Avg.: 30.06
  Mean Scratch Count, individual animals: 56.5 and 32 and 42 and 33 and 6 and 9 and 35 and 27
C57BL/6 mice [4]; [20]
  Mean Scratch Count, Avg.: 13.94
  Mean Scratch Count, individual animals: 7 and 6 and 27 and 21.5 and 5 and 10.5 and 16 and 18.5
C57BL/6 mice [4]; [21]
  Mean Scratch Count, Avg.: 5.19
  Mean Scratch Count, individual animals: 0 (2×) and 3 and 5 (2×) and 16.5 and 8 and 4
C57BL/6 mice [4]; [22]
  Mean Scratch Count, Avg.: 3.56
  Mean Scratch Count, individual animals: 3 and 0 (3×) and 4 and 7.5 and 1 and 13
C57BL/6 mice [4]; [23]
  Mean Scratch Count, Avg.: 6.31
  Mean Scratch Count, individual animals: 8 and 0 (2×) and 2 and 33 and 1 (2×) and 5.5
